Measured values taken from patent US11292759B2, “Hydroxycitric acid metal heterocyclic compounds with covalent characteristics” (GLYKON TECHNOLOGIES GROUP, LLC, priority 2018, dated 2022).

What was measured:
[1] = biological target: T1, ATP citrate lyase (EC 4.1.3.8) (Homo sapiens, UniProt P53396); details: cited from earlier work
T1 sequence (P53396 1-1101): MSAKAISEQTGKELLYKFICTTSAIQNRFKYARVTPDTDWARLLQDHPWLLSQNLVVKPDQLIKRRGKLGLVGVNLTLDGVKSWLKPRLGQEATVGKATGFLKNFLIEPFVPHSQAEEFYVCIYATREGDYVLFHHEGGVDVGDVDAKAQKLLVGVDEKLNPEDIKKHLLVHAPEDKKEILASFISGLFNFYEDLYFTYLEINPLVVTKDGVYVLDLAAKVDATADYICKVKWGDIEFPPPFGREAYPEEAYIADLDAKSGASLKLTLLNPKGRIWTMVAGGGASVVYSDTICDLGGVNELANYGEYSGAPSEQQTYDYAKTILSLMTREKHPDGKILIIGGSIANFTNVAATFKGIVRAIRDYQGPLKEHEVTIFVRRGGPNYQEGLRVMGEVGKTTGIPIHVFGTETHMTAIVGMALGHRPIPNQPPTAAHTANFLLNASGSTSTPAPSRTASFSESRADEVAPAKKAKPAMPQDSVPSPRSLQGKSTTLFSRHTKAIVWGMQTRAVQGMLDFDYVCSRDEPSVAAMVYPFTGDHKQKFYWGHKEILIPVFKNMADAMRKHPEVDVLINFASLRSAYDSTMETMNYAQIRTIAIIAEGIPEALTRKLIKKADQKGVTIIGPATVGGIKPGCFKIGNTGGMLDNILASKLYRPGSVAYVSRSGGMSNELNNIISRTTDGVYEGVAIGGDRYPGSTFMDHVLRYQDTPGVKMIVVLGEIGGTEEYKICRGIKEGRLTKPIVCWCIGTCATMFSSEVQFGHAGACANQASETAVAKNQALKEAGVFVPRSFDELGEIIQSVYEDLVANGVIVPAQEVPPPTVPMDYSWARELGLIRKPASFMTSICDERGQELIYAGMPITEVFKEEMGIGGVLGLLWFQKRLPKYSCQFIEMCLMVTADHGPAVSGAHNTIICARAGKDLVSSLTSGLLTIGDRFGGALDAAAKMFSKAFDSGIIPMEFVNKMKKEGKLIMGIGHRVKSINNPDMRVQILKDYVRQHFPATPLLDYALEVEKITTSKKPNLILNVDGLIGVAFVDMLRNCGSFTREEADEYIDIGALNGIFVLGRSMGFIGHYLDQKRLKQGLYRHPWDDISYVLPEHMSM

[2] = system: de novo lipogenesis (DNL); details: obese subjects, 6 g HCA/day for 5 days; cited from earlier work
[3] = system: de novo lipogenesis (DNL); test: De novo lipogenesis in rats (literature); assay type: in vivo; details: for a 70 kg human being
Text: Dosages of various HCA compositions found to be effective are quite large, indeed beyond the normal range for pharmaceutical products, with efficacy that is highly variable. […] A later study found a significant, yet limited effect after 7 days of a diet designed specifically to induce de novo lipogenesis in humans. (Physiol Behav. 2006 Jul. 30; 88(4-5): 371-81). See also, Nutr Metab (Lond). 2005 Sep. 13; 2:23.

[4] = Conductivity of solutions (HACH Conductivity/TDS meter); assay type: physicochemical; details: Concentration 0.3 mmol/l in demineralized water, no additive
Text: The structure of the subject compounds (e.g., as described herein) can be deduced using a conductance meter to observe the extent of dissociate of the first and/or second metals from the compounds. In an experiment described below equimolar samples and comparative electrolyte conductance to K-acetate solution as a standard, data may be obtained which is characteristic of electrolyte binary conductants. […] The KMgHCA solution in water may have a pH 8-10 depending on the concentration. Under this condition, the heterocyclic anion formed will tend toward a stable form rather than an ionizable one.
Several experiments investigating the electrical conductivities of solutions of KMgHCA, KZnHCA and KMnHCA are performed. The equipment used is HACH Conductivity/TDS meter, P/N=4460-00.
Materials: KMgHCA.4H2O, KZnHCA.2H2O, KMnHCA.2H2O are prepared using methods described herein. KC2H3O2 and […] was obtained from Merck. H2O used was demineralized water.
General procedure: All the HCA compounds and Acetate were weighed and placed in a volumetric flask and dissolved with demineralized water to one liter solution and then they were tested the conductivity (EC).

[5] = system: osteoporosis and calcification; test: Example 13: comparison of bimetal regimes in two subjects; assay type: in vivo, human; parameters: key to Treatment performance: ++: very good performance; +−: good but slight complaint
Protocol: Subject I: a person, 40 kg (cited in Example 11, above)
Subject II: a person; 72 kg
Treatment: A. Mixture 25% KCa HCA+75% KMg HCA bimetals (100-200 mg)
Treatment B: Only KMg HCA but not KCa HCA was used.

Osteoporosis = test: Example 14: comparison of KCaHCA and/or KMgHCA compositions in one subject; assay type: in vivo, human; details: 200 mg doses, after switch from experiment 1 regimen
Protocol: • Subject: (cited as Example 12, above) • • Problem: Osteoporosis • Treatment: Materials were consumed 3 times a day after meals. • Experiment 1. Blending 150 mg KMgHCA.8H2O+50 mg KCaHCA.3H2O • A 200 mg mixture of KCaHCA (25%) and KMgHCA (75%) prepared according to the subject methods was used. The actual percentage of calcium was (40/338)×25%=2.96%. Since KCaHCA.3H2O was used the percentage of magnesium in the composition was (24/412)×75%=4.37%. Since KMgHCA.8H2O was used, the ratio Ca:Mg=0.15:0.36 in mmol. • Experiment 2. 200 mg KMgHCA.8H2O • Experiment 3.

[6] = cited from earlier work

For O=C(O)CC(O)(C(=O)O)C(O)C(=O)O (single isomer, unassigned; (-)) [(−)-HCA, (−)-hydroxycitric acid], the “inhibition of ATP citrate lyase” value [1] is listed as “potent inhibitor”.

In the case of O=C(O)CC(O)(C(=O)O)C(O)C(=O)O (stereo not drawn) [HCA, Hydroxycitric acid], the “inhibition of DNL / promotion of fatty acid oxidation” value [2] is listed as “failed to inhibit DNL or to promote fatty acid oxidation” and the “effective dose extrapolated from rats” value [3] is listed as “approximately 4.5 g/day”.

For CC(=O)[O-].[K+] [KC2H3O2, K-acetate], the “E. C (μS/cm)” value [4] was 56.06 μS/cm.

With O=C([O-])CC(O)(C(=O)[O-])C(O)C(=O)[O-].[K+].[Mg+2] (stereo not drawn) [KMgHCA] the Treatment performance ([5]; Patient II (72 kg)) was “+−”, the reduction of symptoms ([5]; Subject II) was “partial reduction of symptoms” and the “patient's condition observed during treatment” value (Osteoporosis) was “slight difficult to walk”.

In the case of CC(=O)[O-].CC(=O)[O-].O.O.O.O.[Mg+2] [Mg(CH3COO)2•4H2O], the “E. C (μS/cm)” value [4] is reported as 32.3 μS/cm.

For O=C(O)CO [glycolic acid], the pKa [6] is given as “approx. 3.83”.
